Experiments:
Format in all cases: in vivo, human
[1] = test system: adult subjects with schizophrenia; assay: CGI Severity of Illness score, Clinical Study Three; details: LOCF; for Change from Baseline in CGI Severity of Illness Score, Mean (SD) / Change from Baseline in CGI Severity of Illness Score, Median: 15 mg
Excerpt: SECONDARY OBJECTIVES To assess the efficacy of bifeprunox in treating schizophrenia using the Positive Symptom sub-scale score of the PANSS, the Negative Symptom sub-scale score of the PANSS, the General Psychopathology sub-scale of the PANSS, Brief Psychiatric Rating Scale (BPRS) total score derived from the PANSS, BPRS psychosis score derived from the PANSS, the Clinical Global Impression Severity of Illness score (CGI-S), the Clinical Global Impression Improvement score (CGI-I), CGI-I responder rate, PANSS responder rate based on the PANSS total score, Calgary Depression Scale for Schizophrenia (CDSS), and Subject Satisfaction rating.
There were four treatment arms in this study, approximately 144 subjects per arm. […] After completing the Single-Blind Placebo Lead-in Period of at least three days, bifeprunox-treated subjects were titrated from 0.25 mg up to 20 mg/day or 30 mg/day according to a standardized titration scheme over a seven- or eight-day period, respectively. When the assigned dose was reached, subjects were maintained at that dose for the remainder of the six week treatment period. […] Subjects were hospitalized (if not already inpatients) after eligibility for study entry was verified, starting from the Screening Visit until at least 10 days after Baseline. Subjects could be hospitalized longer than 10 days if considered medically necessary by the Investigator. Rating scale assessments for efficacy and abnormal movement disorders were done weekly except for Week 5. […] Subject satisfaction with study medication was assessed at Week 6.

[2] = test system: adult subjects with schizophrenia; assay: PANSS negative subscale score, Clinical Study One; details: Risperidone 6 mg, ITT
Protocol: (§1) There were five treatment groups in this study. […] Study medication was administered once daily. After Baseline measurements were performed, the titration phase was begun. Bifeprunox treated subjects were titrated up to 5 mg, 10 mg or 20 mg according to a standardized titration schedule (Day 1: 0.125 mg, Day 2: 0.25 mg, Day 3: 0.5 mg, Day 4: 1.0 mg, Day 5: 2.0 mg, Day 6: 5.0 mg, Day 7: 10.0 mg, Day 8: 20 mg). When the assigned dose was reached, subjects were maintained at that dose for the remainder of the six-week treatment period.
The change in the Positive and Negative Symptom Scale (PANSS) total score, from baseline to endpoint, was the primary outcome measure. Secondary efficacy measures included: PANSS positive, PANSS negative, PANSS general psychopathology (GPP) score, PANSS-derived Brief Psychiatric Rating Scale (BPRS) score, Clinical Global Impressions-Severity of Illness (CGI-S), CGI-Improvement (CGI-I) scores, and responder rates. Safety and tolerability evaluations included extrapyramidal symptoms (EPS), weight gain, lipid profile, and serum prolactin.

[3] = test system: adult subjects with schizophrenia; assay: BPRS psychosis cluster score, Clinical Study One; details: Risperidone 6 mg, ITT population
Protocol: as §1

[4] = test system: adult subjects with schizophrenia; assay: PANSS negative symptom subscale score, Clinical Study Two; details: Risperidone 6 mg, LOCF, ITT
Protocol: (§2) Rating scale assessments were performed weekly, except for week 5, to measure the change from baseline to endpoint of the PANSS total score. Other assessments included: PANSS positive symptom subscale score, PANSS negative symptom subscale score, PANSS general pschopathology subscale score, BPRS total score, BPRS psychosis score, the CGI-S score, the CGI-I score, responder rates based on the PANSS total score, and the Calgary Depression Scale for Schizophrenia (CDSS). […]
(§3) Subjects who completed this study had the option to continue in the long-term. […] Risperidone-treated subjects were titrated from 2 mg to 6 mg daily over a three-day period and were subsequently maintained at 6 mg/day for the remainder of the treatment period. […] Blood samples were also obtained at Screening/Baseline, Week 3, and Week 6 for clinical laboratory assessments.

[5] = test system: adult subjects with schizophrenia; assay: BPRS psychosis cluster score, Clinical Study Two; details: LOCF; for Change from Baseline in BPRS Psychosis Cluster Score, Mean (SD) / Change from Baseline in BPRS Psychosis Cluster Score, Median: Risperidone 6 mg, ITT population
Protocol: as §2, §3

[6] = test system: adult subjects with schizophrenia; assay: CGI Severity of Illness score, Clinical Study Two; details: LOCF; for Change from Baseline in CGI Severity of Illness Score, Mean (SD) / Change from Baseline in CGI Severity of Illness Score, Median: Risperidone 6 mg, ITT population
Protocol: as §2, §3

## Cc1cc2c(s1)Nc1ccccc1N=C2N1CCN(C)CC1 [Olanzapine, olanzapine, reference compound]
[1]; Week 1
  Change from Baseline in CGI Severity of Illness Score, Mean (SD): −0.40 (0.65)
  Change from Baseline in CGI Severity of Illness Score, Median: 0.0
[1]; Week 2
  Change from Baseline in CGI Severity of Illness Score, Mean (SD): −0.71 (0.76)
  Change from Baseline in CGI Severity of Illness Score, Median: −1.0
[1]; Week 3
  Change from Baseline in CGI Severity of Illness Score, Mean (SD): −0.85 (0.87)
  Change from Baseline in CGI Severity of Illness Score, Median: −1.0
[1]; Week 4
  Change from Baseline in CGI Severity of Illness Score, Mean (SD): −0.92 (0.90)
  Change from Baseline in CGI Severity of Illness Score, Median: −1.0
[1]; Week 6/Endpoint
  Change from Baseline in CGI Severity of Illness Score, Mean (SD): −1.03 (1.00)
  Change from Baseline in CGI Severity of Illness Score, Median: −1.0
[1]; olanzapine 15 mg, ITT
  mean change (SD) from Baseline to Endpoint in CGI severity of illness score: −1.03 (1.00)

## Cc1nc2n(c(=O)c1CCN1CCC(c3noc4cc(F)ccc34)CC1)CCCC2 [Risperidone, risperidone, reference compound]
[2]; Endpoint LOCF
  Change from Baseline in PANSS Negative Subscale Score, Mean (S.D.): −3.6 (4.6)
  Change from Baseline in PANSS Negative Subscale Score, Median: −3
[2]; Week 1, LOCF
  Change from Baseline in PANSS Negative Subscale Score, Mean (S.D.): −2.1 (3.5)
  Change from Baseline in PANSS Negative Subscale Score, Median: −1
[2]; Week 2, LOCF
  Change from Baseline in PANSS Negative Subscale Score, Mean (S.D.): −3.0 (4.2)
  Change from Baseline in PANSS Negative Subscale Score, Median: −3
[2]; Week 3, LOCF
  Change from Baseline in PANSS Negative Subscale Score, Mean (S.D.): −3.5 (4.2)
  Change from Baseline in PANSS Negative Subscale Score, Median: −3
[2]; Week 4, LOCF
  Change from Baseline in PANSS Negative Subscale Score, Mean (S.D.): −3.2 (4.3)
  Change from Baseline in PANSS Negative Subscale Score, Median: −3
[3]; Endpoint LOCF
  Change from Baseline in BPRS Psychosis Cluster Score, Mean (S.D.): −4.1 (3.5)
  Change from Baseline in BPRS Psychosis Cluster Score, Median: −4
[3]; Week 1, LOCF
  Change from Baseline in BPRS Psychosis Cluster Score, Mean (S.D.): −2.2 (2.7)
  Change from Baseline in BPRS Psychosis Cluster Score, Median: −2
[3]; Week 2, LOCF
  Change from Baseline in BPRS Psychosis Cluster Score, Mean S.D.: −3.6 (3.2)
  Change from Baseline in BPRS Psychosis Cluster Score, Median: −3
[3]; Week 3, LOCF
  Change from Baseline in BPRS Psychosis Cluster Score, Mean (S.D.): −4.1 (3.4)
  Change from Baseline in BPRS Psychosis Cluster Score, Median: −4
[3]; Week 4, LOCF
  Change from Baseline in BPRS Psychosis Cluster Score, Mean (S.D.): −3.9 (3.3)
  Change from Baseline in BPRS Psychosis Cluster Score, Median: −4
[4]; Week 1
  Change from Baseline in PANSS Negative Symptom Subscale Score, Mean (SD): −1.5 (3.0)
  Change from Baseline in PANSS Negative Symptom Subscale Score, Median: −2
[4]; Week 2
  Change from Baseline in PANSS Negative Symptom Subscale Score, Mean (SD): −2.9 (4.3)
  Change from Baseline in PANSS Negative Symptom Subscale Score, Median: −3
[4]; Week 3
  Change from Baseline in PANSS Negative Symptom Subscale Score, Mean (SD): −3.3 (4.9)
  Change from Baseline in PANSS Negative Symptom Subscale Score, Median: −3
[4]; Week 4
  Change from Baseline in PANSS Negative Symptom Subscale Score, Mean (SD): −3.8 (5.5)
  Change from Baseline in PANSS Negative Symptom Subscale Score, Median: −4
[4]; Week 6/Endpoint
  Change from Baseline in PANSS Negative Symptom Subscale Score, Mean (SD): −3.8 (5.5)
  Change from Baseline in PANSS Negative Symptom Subscale Score, Median: −3
[5]; Week 1
  Change from Baseline in BPRS Psychosis Cluster Score, Mean (SD): −2.3 (2.4)
  Change from Baseline in BPRS Psychosis Cluster Score, Median: −2
[5]; Week 2
  Change from Baseline in BPRS Psychosis Cluster Score, Mean (SD): −3.6 (3.0)
  Change from Baseline in BPRS Psychosis Cluster Score, Median: −4
[5]; Week 3
  Change from Baseline in BPRS Psychosis Cluster Score, Mean (SD): −4.3 (3.4)
  Change from Baseline in BPRS Psychosis Cluster Score, Median: −4
[5]; Week 4
  Change from Baseline in BPRS Psychosis Cluster Score, Mean (SD): −4.7 (3.6)
  Change from Baseline in BPRS Psychosis Cluster Score, Median: −5
[5]; Week 6/Endpoint
  Change from Baseline in BPRS Psychosis Cluster Score, Mean (SD): −4.9 (4.0)
  Change from Baseline in BPRS Psychosis Cluster Score, Median: −5
[5]; risperidone 6 mg, ITT
  mean change (SD) from Baseline to Endpoint in BPRS psychosis cluster score: −4.9 (4.0)
[6]; Week 1
  Change from Baseline in CGI Severity of Illness Score, Mean (SD): −0.39 (0.63)
  Change from Baseline in CGI Severity of Illness Score, Median: 0.0
[6]; Week 2
  Change from Baseline in CGI Severity of Illness Score, Mean (SD): −0.73 (0.95)
  Change from Baseline in CGI Severity of Illness Score, Median: −1.0
[6]; Week 3
  Change from Baseline in CGI Severity of Illness Score, Mean (SD): −0.94 (1.00)
  Change from Baseline in CGI Severity of Illness Score, Median: −1.0
[6]; Week 4
  Change from Baseline in CGI Severity of Illness Score, Mean (SD): −1.02 (1.09)
  Change from Baseline in CGI Severity of Illness Score, Median: −1.0
[6]; Week 6/Endpoint
  Change from Baseline in CGI Severity of Illness Score, Mean (SD): −1.06 (1.20)
  Change from Baseline in CGI Severity of Illness Score, Median: −1.0
[6]; risperidone 6 mg, ITT
  mean change (SD) from Baseline to Endpoint in CGI severity of illness score: −1.06 (1.20)
